Results from patent publication US5010005A, “Bio-oxidation of high alcohols in non-aqueous reaction media” (priority 1989, dated 1991).

Assays:
[1] = system: whole cells of Pichia pastoris; assay: Conversion of alcohols by whole cells of Pichia pastoris in aqueous reaction media; assay type: cell-based; details: for Oxidation by methanol-induced alcohol oxidase from P. pastoris: aqueous reaction media
Description: Pichia pastoris was obtained from the American Type Culture Collection, Rockville, Maryland, U.S.A. (ATCC 28485). The growth and maintenance medium consisted of: KH2 PO4 2.6 g/L; K2 HPO4 0.3 g/L; (NH4)2 SO4 1.5 g/L; MgSO4.7 ·H2 O 0.3 g/L; Difco yeast extract 1.9 g/L; FeSO4 ·7H2 O 1 mg/L; CuSO4 ·5H2 O 5 μg/L; H3 BO3 10 μg/L; MnSO4 ·H2 O 10 μg/L; ZnSO4 ·7H2 O 70 μg/L: NaMoO4 ·2H2 O 10 μg/L. After the medium was autoclaved and cooled, methanol (10 g/L) and a vitamin solution (J.P. van der Walt and A.E. van Kerken, Antonie van Leeuwenkoek 27: 81-90, 1961) (2 mL) were added. Growth of the organism was carried out in Erlenmeyer shake flasks at 30° C. on a reciprocal shaker (200 rpm). After 72 hrs growth, biomass was harvested by centrifugation (4000 g, 5 min) washed with 0.1 M phosphate buffer pH 8, and resuspended in 0.5 M Tris buffer (pH 8).
Unless otherwise stated, the reaction conditions for whole cell systems in aqueous solution (0.5M Tris pH 8) were as follows: 25 ml of the biomass suspension was dispensed into 125 mL serum vials and the substrate was added to the concentration listed in Table 1. The final biomass concentration was 5 g/L. The vials were flushed with oxygen, capped and sealed to prevent loss of reactants or products from the system. The vials were pressurized with oxygen (15 psig) and shaken (200 rpm) at 30° C. during the reaction. A sample was withdrawn following the reaction time listed in Table 1 and centrifuged (15000 g, 1 min) to remove biomass and stop the reaction. The supernatant liquid was diluted 1:1 with internal standard for gas chromatography. In some cases, a portion of the sample was extracted with 9 volumes of warm (50° C.) water, to solubilize insoluble separated product, mixed thoroughly by vortexing, and then diluted 1:1 with internal standard before assaying by gas chromatography. In all experiments the vials were regularly repressurized with oxygen throughout the reaction period.
The substrates and products were assayed using a Hewlett-Packard 5790A gas chromatograph equipped with a Chromasorb 101 packed column. The carrier gas was helium and the column was run isothermally at 220° C. For aqueous reaction systems the internal standard was isopropyl alcohol (20 g/L). In non-aqueous systems octanol (20 g/L) was dissolved in the appropriate solvent and used as internal standard.

[2] = system: whole cells of Pichia pastoris; assay: Conversion of higher alcohols by whole cells of Pichia pastoris in two-phase (hexane/water) reaction system; assay type: cell-based; details: alcohol 30 g/L
Description: Growth of the organism was carried out in Erlenmeyer shake flasks at 30° C. on a reciprocal shaker (200 rpm). After 72 hrs growth, biomass was harvested by centrifugation (4000 g, 5 min) washed with 0.1 M phosphate buffer pH 8, and resuspended in 0.5 M Tris buffer (pH 8).
The method of conversion of higher alcohols using whole cells in a two-phase reaction system was as follows. One gram of Pichia pastoris cell paste (pellet resulting from a 10 minute, 9154 g centrifugation) was placed in a 125 ml serum vial and dispersed in 2 ml of H2 O (aqueous phase).
Then 48 ml of hexane containing the substrate (concentration in Table 1) were added to form the organic phase. The reaction was conducted as described above. Samples from the organic phase were withdrawn at the indicated times (Table 1) and the concentration of aldehyde product determined by gas chromatography.
The carrier gas was helium and the column was run isothermally at 220° C. For aqueous reaction systems the internal standard was isopropyl alcohol (20 g/L). In non-aqueous systems octanol (20 g/L) was dissolved in the appropriate solvent and used as internal standard.

[3] = system: P. pastoris; assay: Bio-oxidation of hexanol to hexanal by P. pastoris in two-phase aqueous (5% v/v)/organic systems; assay type: cell-based, Pichia pastoris; details: for Hexanal produced: aqueous phase 5% v/v, 24 h incubation
[4] = molecular target: T1, purified alcohol oxidase from P. pastoris (Komagataella phaffii, UniProt P04842); details: Patel et al; cited from earlier work
T1 sequence (P04842 2-663 limits assumed): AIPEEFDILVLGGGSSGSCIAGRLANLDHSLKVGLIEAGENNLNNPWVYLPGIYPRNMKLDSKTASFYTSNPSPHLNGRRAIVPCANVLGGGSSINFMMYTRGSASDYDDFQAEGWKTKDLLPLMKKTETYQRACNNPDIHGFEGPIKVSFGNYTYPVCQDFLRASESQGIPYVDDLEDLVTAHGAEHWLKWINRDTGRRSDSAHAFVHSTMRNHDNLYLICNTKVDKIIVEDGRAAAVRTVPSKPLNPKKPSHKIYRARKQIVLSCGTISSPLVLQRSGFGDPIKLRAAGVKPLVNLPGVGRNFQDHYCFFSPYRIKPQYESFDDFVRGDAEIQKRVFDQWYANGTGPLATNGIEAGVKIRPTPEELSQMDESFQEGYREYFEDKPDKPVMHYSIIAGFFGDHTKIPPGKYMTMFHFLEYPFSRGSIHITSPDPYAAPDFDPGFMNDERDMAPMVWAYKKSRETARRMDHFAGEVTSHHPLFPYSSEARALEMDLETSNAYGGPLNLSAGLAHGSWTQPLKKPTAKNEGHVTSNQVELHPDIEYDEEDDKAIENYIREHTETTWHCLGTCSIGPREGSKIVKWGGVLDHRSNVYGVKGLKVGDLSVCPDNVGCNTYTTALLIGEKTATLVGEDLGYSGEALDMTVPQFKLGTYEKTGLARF

[5] = assay type: physicochemical
Description: The partitioning of benzyl alcohol and benzaldehyde between 0.1 M phosphate buffer and each solvent used were measured as follows: benzyl alcohol (10 g/L) and benzaldehyde (10 g/L) were dissolved in each of the solvents of interest. Ten millilitres of each solvent were then dispensed into a test tube containing 10 ml of 0.1 M phosphate buffer (pH 8). The tubes were capped, vortexed, and the mixture was allowed to equilibrate for 1 hr at 30° C. Both phases were then assayed for benzaldehyde and benzyl alcohol as described above. Partition coefficients were expressed as the ratio of the concentration of the solute of interest in the aqueous phase: the concentration of the same compound in the organic phase.
The partition coefficients were determined as in Example 2 but expressed as solute (g/L) in organic phase/solute (g/L) in aqueous phase (see Table 4).

[6] = molecular target: T2, alcohol oxidase (Komagataella phaffii, UniProt P04842); assay: Conversion of benzyl alcohol to benzaldehyde by purified alcohol oxidase in aqueous two phase systems; assay type: biochemical, Pichia pastoris; details: for Reaction Rate: benzyl alcohol 20 g/L
T2 construct: purchased Provesta Corp. (Bartlesville, Oklahoma)
T2 sequence (P04842 2-663 limits assumed): T1 sequence (P04842 2-663 limits assumed)
Description: To determine reaction rates, benzyl alcohol was presolubilized in the solvent of interest to a final concentration of 20 g/L unless otherwise specified. Alcohol oxidase and catalase were premixed in an activity ratio of 1300 U catalase activity per unit of alcohol oxidase activity. In some cases the enzyme mixture was diluted with 0.1 M phosphate buffer (pH 8) to determine the effect of changes in phase volume ratio. The enzyme mixture was then added to the solvent-substrate reaction fluid in a 125 mL serum vial. Reaction conditions were otherwise identical to those described above.
The purified alcohol oxidase was obtained from Provesta Corp. (Bartlesville, Oklahoma) and consisted of a concentrated (35 g/L) protein solution with a specific activity of 14.7 International Enzyme Units (IEU) per milligram of protein. One IEU is defined as the amount of enzyme which will oxidize one micomole of ethanol to acetaldehyde per minute at pH 7.5 at 25° C. The enzyme was stored frozen (-20° C.) until used. Beef liver catalase was obtained from Boehringer Mannheim Inc. as a 20 g/L suspension with a specific activity of 65000 U/mg. It was stored at 4° C.
Benzyl alcohol to benzaldehyde conversion was described in part a) except the percent aqueous phase was varied between 1and 5%.

[7] = system: alkane-induced alcohol oxidase; details: Kemp et al; cited from earlier work

CCCCCCCCCCO [decanol]
Oxidation by methanol-induced alcohol oxidase from P. pastoris [1]: unable to oxidize

CCCCCCO [hexanol]
Aldehyde concentration, aqueous ([1]; alcohol 30 g/L, reaction time 12 h): 5.0 g/L
Aldehyde concentration, 2-phase ([2]; reaction time 6 h): 10.6 g/L
Aldehyde concentration, 2-phase ([2]; reaction time 24 h): 12.4 g/L
Hexanal produced ([3]; Chloroform): 1.0 g/L
Hexanal produced ([3]; Ether): 2.7 g/L
Hexanal produced ([3]; Ethyl acetate): 2.4 g/L
Hexanal produced ([3]; Hexane): 8.7 g/L
Hexanal produced ([3]; Toluene): 2.4 g/L
Hexanol concentration completely oxidized ([3]; water-hexane two-phase system): up to 10 g/L

CC(N)CO (centres unmarked) [2-amino-1-propanol]
Oxidation by purified alcohol oxidase [4]: unable to oxidize

CCCCCCCCCCCO [undecanol]
Oxidation by methanol-induced alcohol oxidase from P. pastoris [1]: unable to oxidize

CC(C)(C)O [tert butanol]
Oxidation by purified alcohol oxidase [4]: unable to oxidize

CCCCCCCO [heptanol]
Oxidation by methanol-induced alcohol oxidase from P. pastoris [1]: unable to oxidize

OC1CCCCC1 [cyclohexanol]
Oxidation by purified alcohol oxidase [4]: unable to oxidize

CCCCCC=O [hexanal]
Partition coefficient [5]: greater than unity

OCc1ccccc1 [benzyl alcohol]
inhibition at 20000 µg/mL ([1]; Komagataella pastoris, read-out: Reduction of reaction rate by substrate inhibition): ~60%
Substrate concentration at which strong inhibition of the reaction is observed ([1]; whole cells in aqueous reaction fluid): greater than 20 g/L
Cumulative benzaldehyde production Concn. ([6]; enzyme 1.0 U/mL, time 2.0 h): 2.1 g/L
Cumulative benzaldehyde production Concn. ([6]; enzyme 1.0 U/mL, time 4.0 h): 2.8 g/L
Cumulative benzaldehyde production Concn. ([6]; enzyme 1.0 U/mL, time 8.0 h): 17 g/L
Cumulative benzaldehyde production Concn. ([6]; enzyme 2.5 U/mL, time 2.0 h): 5.1 g/L
Cumulative benzaldehyde production Concn. ([6]; enzyme 2.5 U/mL, time 4.0 h): 6.3 g/L
Cumulative benzaldehyde production Concn. ([6]; enzyme 5.0 U/mL, time 2.0 h): 9.9 g/L
Cumulative benzaldehyde production Concn. ([6]; enzyme 5.0 U/mL, time 4.0 h): 13 g/L
Cumulative benzaldehyde production Concn. ([6]; enzyme 7.5 U/mL, time 2.0 h): 13 g/L
Cumulative benzaldehyde production Concn. ([6]; enzyme 7.5 U/mL, time 4.0 h): 19 g/L
Cumulative benzaldehyde production Concn. ([6]; enzyme 10 U/mL, time 2.0 h): 15 g/L
Cumulative benzaldehyde production Concn. ([6]; enzyme 10 U/mL, time 4.0 h, fed-batch addition of benzyl alcohol): 22 g/L
Cumulative benzaldehyde production Concn. ([6]; enzyme 15 U/mL, time 2.0 h): 17 g/L
Cumulative benzaldehyde production Concn. ([6]; enzyme 15 U/mL, time 4.0 h, fed-batch addition of benzyl alcohol): 32 g/L
Cumulative benzaldehyde production Concn. ([6]; enzyme 15 U/mL, time 8.0 h, fed-batch addition of benzyl alcohol): 45 g/L
Initial rate of benzaldehyde production ([6]; enzyme concentration 1.0 U/mL (0.06 g/L)): 1.4 g/L h
Initial rate of benzaldehyde production ([6]; enzyme concentration 2.5 U/mL (0.16 g/L)): 3.4 g/L h
Initial rate of benzaldehyde production ([6]; enzyme concentration 5.0 U/mL (0.31 g/L)): 6.3 g/L h
Initial rate of benzaldehyde production ([6]; enzyme concentration 7.5 U/mL (0.47 g/L)): 8.6 g/L h
Initial rate of benzaldehyde production ([6]; enzyme concentration 10 U/mL (0.63 g/L)): 10.3 g/L h
Initial rate of benzaldehyde production ([6]; enzyme concentration 15 U/mL (0.94 g/L)): 11.7 g/L h
Relative Reaction Rate ([6]; reaction fluid Chloroform): 0.03
Reaction Rate ([6]; reaction fluid Chloroform): 0.07 g/L h
Relative Reaction Rate ([6]; reaction fluid Ether): 0.19
Reaction Rate ([6]; reaction fluid Ether): 0.39 g/L h
Relative Reaction Rate ([6]; reaction fluid Ethylacetate): 0.04
Reaction Rate ([6]; reaction fluid Ethylacetate): 0.09 g/L h
Relative Reaction Rate ([6]; reaction fluid Hexane): 1.0
Reaction Rate ([6]; reaction fluid Hexane): 2.08 g/L h
Relative Reaction Rate ([6]; reaction fluid Toluene): 0.49
Reaction Rate ([6]; reaction fluid Toluene): 1.01 g/L h
Substrate concentration up to which optimum reaction rates (85% of Vmax) could be maintained ([6]; two phase system, hexane): up to 54 g/L

CCCCCCCCCCCCO [dodecanol]
Substrate specificity of alkane-induced alcohol oxidase [7]: optimum activity

CCCCCCCCO [octanol]
Oxidation by methanol-induced alcohol oxidase from P. pastoris [1]: unable to oxidize

CCCCCCCCCO [nonanol]
Oxidation by methanol-induced alcohol oxidase from P. pastoris [1]: unable to oxidize

NCCO [2-amino-ethanol]
Oxidation by purified alcohol oxidase [4]: unable to oxidize
